Measurements published in patent US12371454B2, “Cyclic peptide compound having Kras inhibitory action” (priority 2019, dated 2025).
Positions of bridges follow the written chain, without caps; N, C: chain ends. Non-standard residues stand in square brackets, D forms with d. Residues, ends and D or L forms follow the SMILES beside them. *: point of attachment. hPhe(3-Cl-4-CF3) = N[C@@H](CCc1ccc(C(F)(F)F)c(Cl)c1)C(=O)O; NMeAbu(4,4,4-F3) = CN[C@@H](CC(F)(F)F)C(=O)O; NMePhe(4-Me) = CN[C@@H](Cc1ccc(C)cc1)C(=O)O; NMePhe(4-I) = CN[C@@H](Cc1ccc(I)cc1)C(=O)O; hPhe(4-Cl) = N[C@@H](CCc1ccc(Cl)cc1)C(=O)O; NMeAla(cPent) = CN[C@@H](CC1CCCC1)C(=O)O; NMeCha = CN[C@@H](CC1CCCCC1)C(=O)O; NMeChg = CN[C@H](C(=O)O)C1CCCCC1; NMeI = CC[C@H](C)[C@H](NC)C(=O)O; NMeD = CN[C@@H](CC(=O)O)C(=O)O; NMeHpra = C#CCC[C@H](NC)C(=O)O; NMeL = CN[C@@H](CC(C)C)C(=O)O; NMeV = CN[C@H](C(=O)O)C(C)C; d(β3hA) = C[C@@H](N)CC(=O)O; NMeS = CN[C@@H](CO)C(=O)O; NMeA = CN[C@@H](C)C(=O)O; Piperidide = C1CCN(*)CC1; Pyrrolidide = C1CCN(*)C1; dNMeA = CN[C@H](C)C(=O)O; Ac5c = NC1(C(=O)O)CCCC1; Aze = O=C(O)[C@@H]1CCN1; Cyclobutyl = C1CC(*)C1; Sar = CNCC(=O)O

Key:
[1] = molecular target: T1, Kras and SOS1 (biotin-tagged human Kras loaded with GDP, His-tagged human SOS1) (Homo sapiens, UniProt P01116, G12D); experiment: Protein-protein interaction inhibition between Kras and SOS1 (KrasGl2D-SOS PPI) using AlphaScreen; format: binding; conditions: AlphaScreen; biotin-tagged human Kras loaded with GDP, His-tagged human SOS1; read-out: KRAS G12D-SOS PPI IC50
T1 construct: made in house; host or cells: E. coli (stated for Kras only)
T1 sequence (P01116 1-188 isoform P01116-2 G12D): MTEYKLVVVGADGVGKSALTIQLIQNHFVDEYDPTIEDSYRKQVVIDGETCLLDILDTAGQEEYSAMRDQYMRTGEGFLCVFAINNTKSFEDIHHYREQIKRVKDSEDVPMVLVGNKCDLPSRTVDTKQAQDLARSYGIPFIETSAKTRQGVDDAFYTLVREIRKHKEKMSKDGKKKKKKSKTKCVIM
Method in brief: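 AlphaScreen format: Ni donor beads capture His-SOS1, streptavidin acceptor beads capture biotinylated Kras (E. coli-expressed, GDP-loaded post-purification). Excite 680 nm, read 520-620 nm.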

[2] = system: Human pancreatic cancer cell line AsPC-1; experiment: Measurement of AsPC-1 cell growth inhibition (AsPC-1 CGI); format: cell-based; conditions: 96 h
Method in brief: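 AsPC-1 cells in 15% FBS RPMI-1640 were exposed to test compound for 96 hours at 37° C, with CellTiter-Glo as endpoint.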

SMILES | IC50 [1] [nM] | IC50 [2] [nM]
CC[C@H](C)[C@@H]1NC(=O)[C@H](CC(C)C)N(C)C(=O)C[C@@H](C(=O)N(C)C)N(C)C(=O)[C@H]([C@@H](C)CC)N(C)C(=O)C2(CCCC2)NC(=O)[C@@H](C)N(C)C(=O)[C@H](CCc2ccc(C(F)(F)F)c(Cl)c2)NC(=O)CN(C)C(=O)[C@H](Cc2ccc(C)cc2)N(C)C(=O)[C@@H]2CCN2C(=O)[C@H](C)N(C)C1=O [Compound 288] ([NMeL]I[NMeA][Aze][NMePhe(4-Me)][Sar][hPhe(3-Cl-4-CF3)][dNMeA][Ac5c][NMeI][NMeD]-NMe2; lactam N-11) | 1.7 | 100 to 500
CC[C@H](C)[C@@H]1NC(=O)[C@H](C)N(C)C(=O)C[C@@H](C(=O)N2CCCCC2)N(C)C(=O)[C@H](C2CCCCC2)N(C)C(=O)C2(CCCC2)NC(=O)[C@@H]2CCCN2C(=O)[C@H](CCc2ccc(Cl)cc2)NC(=O)CN(C)C(=O)[C@H](CC2CCCCC2)N(C)C(=O)CN(C)C(=O)CN(C)C1=O [Compound 292] ([NMeA]I[Sar][Sar][NMeCha][Sar][hPhe(4-Cl)]P[Ac5c][NMeChg][NMeD]-Piperidide; lactam N-11) | 0.45 | 50 to 100
C#CCC[C@H]1C(=O)N[C@@H]([C@@H](C)CC)C(=O)N(C)CC(=O)N(C)CC(=O)N(C)[C@@H](Cc2ccc(I)cc2)C(=O)N(C)CC(=O)N[C@@H](CCc2ccc(C(F)(F)F)c(Cl)c2)C(=O)N2CCC[C@H]2C(=O)NC2(CCCC2)C(=O)N(C)[C@@H](C2CCCCC2)C(=O)N[C@H](C)CC(=O)N1C [Compound 300] (cyclo([Ac5c][NMeChg][d(β3hA)][NMeHpra]I[Sar][Sar][NMePhe(4-I)][Sar][hPhe(3-Cl-4-CF3)]P)) | 9.5 | 100 to 500
CC[C@H](C)[C@@H]1NC(=O)[C@H](CC(C)C)N(C)C(=O)C[C@@H](C(=O)N2CCCCC2)N(C)C(=O)[C@H](C2CCCCC2)N(C)C(=O)C2(CCCC2)NC(=O)[C@@H]2CCCN2C(=O)[C@H](CCc2ccc(C(F)(F)F)c(Cl)c2)NC(=O)CN(C)C(=O)[C@H](COC2CCC2)N(C)C(=O)CN(C)C(=O)CN(C)C1=O [Compound 309] ([NMeL]I[Sar][Sar][NMeS](Cyclobutyl)[Sar][hPhe(3-Cl-4-CF3)]P[Ac5c][NMeChg][NMeD]-Piperidide; lactam N-11) | 0.75 | 100 to 500
CC[C@H](C)[C@@H]1NC(=O)[C@H](CC(C)C)N(C)C(=O)C[C@@H](C(=O)N2CCCCC2)N(C)C(=O)[C@H]([C@@H](C)CC)N(C)C(=O)C2(CCCC2)NC(=O)[C@@H]2CCCN2C(=O)[C@H](CCc2ccc(C(F)(F)F)c(Cl)c2)NC(=O)CN(C)C(=O)[C@H](CC2CCCCC2)N(C)C(=O)CN(C)C(=O)CN(C)C1=O [Compound 311] ([NMeL]I[Sar][Sar][NMeCha][Sar][hPhe(3-Cl-4-CF3)]P[Ac5c][NMeI][NMeD]-Piperidide; lactam N-11) | 5.9 | 20 to 50
CC[C@H](C)[C@@H]1NC(=O)[C@H](CC2CCCCC2)N(C)C(=O)C[C@@H](C(=O)N2CCCCC2)N(C)C(=O)[C@H](C(C)C)N(C)C(=O)C2(CCCC2)NC(=O)[C@@H]2CCCN2C(=O)[C@H](CCc2ccc(C(F)(F)F)c(Cl)c2)NC(=O)CN(C)C(=O)[C@H](CC2CCCCC2)N(C)C(=O)CN(C)C(=O)CN(C)C1=O [Compound 321] ([NMeCha]I[Sar][Sar][NMeCha][Sar][hPhe(3-Cl-4-CF3)]P[Ac5c][NMeV][NMeD]-Piperidide; lactam N-11) | 11 | 100 to 500
CC[C@H](C)[C@@H]1NC(=O)[C@H](CC(F)(F)F)N(C)C(=O)C[C@@H](C(=O)N2CCCC2)N(C)C(=O)[C@H](C2CCCCC2)N(C)C(=O)C2(CCCC2)NC(=O)[C@@H]2CCCN2C(=O)[C@H](CCc2ccc(C(F)(F)F)c(Cl)c2)NC(=O)CN(C)C(=O)[C@H](CC2CCCC2)N(C)C(=O)CN(C)C(=O)CN(C)C1=O [Compound 326] ([NMeAbu(4,4,4-F3)]I[Sar][Sar][NMeAla(cPent)][Sar][hPhe(3-Cl-4-CF3)]P[Ac5c][NMeChg][NMeD]-Pyrrolidide; lactam N-11) | 0.7 | 50 to 100
